Strand notation (5' to 3'): a small letter for the sugar, then the base; units joined by * are phosphorothioate-linked, units joined directly phosphodiester-linked; [ ] holds rarer units or linkages, { } end groups; capitals alone tell only the bases. k = constrained ethyl (cEt); [5mC] = 5-methylcytosine; d = 2'-deoxy (DNA)
Test system: Yap1 mRNA
Assay: Dose-dependent inhibition of human Yap1 in A-431 cells (Example 8, 10,000 cells per well, RTS4814)
Type: cell-based
Settings: free uptake, approximately 48 hours, RTS4814; for Yap1 mRNA, % UTC: A-431 cells, 10,000 cells per well; for IC50: A-431 cells, linear regression on log/linear plot
Protocol: Modified oligonucleotides described in the studies above were tested at various doses in A-431 cells. Cultured A-431 cells at a density of 10,000 cells per well were treated using free uptake with modified oligonucleotides diluted to concentrations described in the tables below. After approximately 48 hours, Yap1 mRNA levels were measured as previously described using the Human Yap1 primer-probe set RTS4814. Yap1 mRNA levels were normalized to total RNA content, as measured by RIBOGREEN®. Results are presented in the tables below as percent control of the amount of Yap1 mRNA relative to untreated control cells (% UTC). IC50s were calculated using a linear regression on a log/linear plot of the data in excel.

Row | Substance | Yap1 mRNA, % UTC (31.3 nM) [% UTC] | Yap1 mRNA, % UTC (125.0 nM) [% UTC] | Yap1 mRNA, % UTC (500.0 nM) [% UTC] | Yap1 mRNA, % UTC (2000.00 nM) [% UTC] | IC50 [nM]
1 | 1075111 (kT*kA*kG*dG*dA*dA*dT*dA*dT*dG*dG*dG*dT*kA*kG*kT; antisense) [compound 1075111] | 42 | 11 | 6 | 5 | < 20
2 | 1076416 (kA*k[5mC]*k[5mC]*dG*dA*dA*dA*dT*dG*dA*dT*dA*d[5mC]*kT*kG*kA; antisense) [compound 1076416] | 67 | 33 | 13 | 7 | 100
3 | 1076293 (kG*k[5mC]*kT*dT*dA*dT*dT*dA*dT*dT*dG*dA*dG*kT*kT*kA; antisense) [compound 1076293] | 49 | 18 | 6 | 5 | < 20
4 | 1076295 (kG*kT*kA*dT*dA*dT*dT*dA*dG*dT*dG*d[5mC]*d[5mC]*k[5mC]*k[5mC]*k[5mC]; antisense) [compound 1076295] | 55 | 17 | 5 | 3 | < 20
5 | 1074251 (antisense kT*k[5mC]*kT*dG*dA*dT*d[5mC]*dG*dA*dT*dG*dT*dG*kA*kT*kT) [compound 1074251] | 73 | 33 | 16 | 10 | 100
6 | 1076491 (kA*kG*k[5mC]*d[5mC]*dA*dA*dA*dA*dT*dA*dG*dG*dT*kG*kA*kG; antisense) [compound 1076491] | 81 | 45 | 21 | 10 | 100
7 | 1075112 (kA*kT*kA*dT*dA*dG*dG*dA*dA*dT*dA*dT*dG*kG*kG*kT; antisense) [compound 1075112] | 87 | 36 | 13 | 7 | 100
8 | 1076448 (k[5mC]*kT*kT*dA*dT*dA*dA*dT*dG*d[5mC]*dA*dA*dT*k[5mC]*k[5mC]*kT; antisense) [compound 1076448] | 61 | 19 | 4 | 3 | < 20
9 | 1075712 (kG*kA*k[5mC]*dG*d[5mC]*dG*dA*dA*dA*dT*dA*d[5mC]*dT*kT*kA*k[5mC]; antisense) [compound 1075712] | 69 | 38 | 13 | 7 | 100
10 | 1074368 (kG*kA*kT*dA*dG*dT*dA*dT*d[5mC]*dA*d[5mC]*d[5mC]*dT*kG*kT*kA; antisense) [compound 1074368] | 67 | 34 | 15 | 10 | 100
11 | 1076288 (k[5mC]*kT*kT*dA*dT*dT*dT*dA*dG*d[5mC]*dA*dT*dA*kG*kT*kG; antisense) [compound 1076288] | 31 | 7 | 3 | 4 | < 20
12 | 1075842 (kG*kT*kA*dT*dT*dT*dA*dG*dG*dT*dA*d[5mC]*dT*k[5mC]*kA*kG; antisense) [compound 1075842] | 27 | 7 | 3 | 3 | < 20
13 | 1076459 (k[5mC]*kT*kT*d[5mC]*dA*dA*d[5mC]*dA*dA*dG*dA*d[5mC]*dA*kG*kG*kT; antisense) [compound 1076459] | 67 | 32 | 13 | 7 | 100
14 | 1076326 (kG*k[5mC]*kT*dA*dA*dT*dA*dA*dT*dG*dG*dA*dA*kG*kA*kG; antisense) [compound 1076326] | 53 | 20 | 6 | 3 | < 20
15 | 1076067 (kG*k[5mC]*kA*dT*dA*dT*dA*dA*dG*dA*dT*dG*dT*kT*kT*kG; antisense) [compound 1076067] | 45 | 13 | 5 | 4 | < 20
16 | 1075498 (k[5mC]*kA*kT*dT*dA*dT*dA*dT*dA*dA*dT*dG*d[5mC]*kA*kG*kG; antisense) [compound 1075498] | 82 | 40 | 21 | 16 | 100
17 | 1076299 (k[5mC]*kG*kT*dT*dA*dT*dA*dA*dA*dG*dA*d[5mC]*d[5mC]*k[5mC]*kA*kA; antisense) [compound 1076299] | 68 | 38 | 13 | 5 | 100
18 | 1075813 (kA*k[5mC]*kT*dA*dA*dT*dA*dT*dG*d[5mC]*dA*dA*d[5mC]*kT*k[5mC]*kT; antisense) [compound 1075813] | 57 | 31 | 11 | 5 | 40
19 | 1075242 (k[5mC]*kA*kG*dG*dG*dA*dT*dA*dA*dT*dT*dA*d[5mC]*kT*kA*kA; antisense) [compound 1075242] | 71 | 39 | 18 | 12 | 100
20 | 1075047 (antisense kT*kA*kA*dA*dA*dT*dT*dA*dG*dA*d[5mC]*dT*d[5mC]*k[5mC]*k[5mC]*k[5mC]) [compound 1075047] | 80 | 63 | 27 | 10 | 200
21 | 1075465 (antisense kG*kA*kT*dT*dT*dA*dT*dT*dG*dA*dA*d[5mC]*dT*kG*kA*kG) [compound 1075465] | 75 | 35 | 14 | 9 | 100
22 | 1075689 (k[5mC]*kA*kA*d[5mC]*dT*dA*dT*dA*d[5mC]*dA*dA*dG*dG*k[5mC]*kA*kA; antisense) [compound 1075689] | 97 | 59 | 19 | 8 | 200
23 | 1074536 (kA*kG*kT*dA*dA*dT*dA*dG*d[5mC]*dT*d[5mC]*dT*dT*kT*k[5mC]*kT; antisense) [compound 1074536] | 64 | 24 | 9 | 6 | 40
24 | 1075143 (k[5mC]*k[5mC]*kT*dT*dA*dT*dT*dA*dG*dT*d[5mC]*dA*dG*kT*kT*k[5mC]; antisense) [compound 1075143] | 59 | 21 | 5 | 3 | < 20
25 | 1074595 (DNA kT*kA*kG*dA*dA*dG*dT*dA*dG*dG*dA*dG*d[5mC]*kA*kA*kG; antisense) [compound 1074595] | 67 | 21 | 8 | 4 | 40
26 | 1075939 (antisense k[5mC]*kT*kT*dG*dA*dA*dT*dA*dT*dA*dT*dG*dG*kG*kT*kT) [compound 1075939] | 46 | 19 | 10 | 8 | < 20
27 | 1075048 (antisense kG*kT*kA*dA*dA*dA*dT*dT*dA*dG*dA*d[5mC]*dT*k[5mC]*k[5mC]*k[5mC]) [compound 1075048] | 76 | 42 | 13 | 5 | 100
28 | 1075138 (kA*kA*kT*dA*dA*dT*dA*dG*dA*dT*dA*d[5mC]*dT*kG*k[5mC]*k[5mC]; antisense) [compound 1075138] | 66 | 27 | 8 | 5 | 50
29 | 1075401 (antisense k[5mC]*kG*kA*dT*dT*dA*dA*dA*dA*d[5mC]*dA*d[5mC]*dT*kG*kG*kT) [compound 1075401] | 62 | 26 | 11 | 7 | 40
30 | 1074597 (DNA kA*kG*kT*dA*dT*dT*d[5mC]*dT*dA*dT*d[5mC]*d[5mC]*dA*kG*kG*kG; antisense) [compound 1074597] | 35 | 15 | 8 | 7 | < 20

— patent publication US11214803B2, “Modulators of YAP1 expression” (Ionis Pharmaceuticals, Inc., priority 2019, dated 2022)
